Test results taken from patent US10617677B2, “Nuclear transport modulators and uses thereof” (Biogen MA Inc., priority 2012, dated 2020).

Key:
[1] = test system: Nrf2 pathway; assay: Nrf2 pathway induction in THP-1 cells with or without KEAP1 knockdown (quantitative PCR); type: cell-based, human
Source text: THP-1 (human acute monocytic leukemia cells) cells were used to evaluate the effects of Compound 1 on the Nrf2 pathway in an inflammation environment. Nuclear factor (erythroid-derived 2)-like 2 (Nrf2) is an anti-inflammatory transcription factor. Under normal conditions, Nrf2 is kept in the cytoplasm by Kelch like-ECH associated protein 1 (KEAP1), which degrades Nrf2 by ubiquitination. Nrf2 can also move into the nucleus and back into the cytoplasm as a CRM1 cargo. In the current study, Nrf2 was protected from degradation by knocking down KEAP1 with siRNA. Then, KEAP1-depleted cells were treated with TNFα to induce inflammation, and the ability of Compound 1 to reverse inflammation by up-regulation of the Nrf2 pathway was tested.
THP-1 (acute monocytic leukemia) cells were plated in two 10 cm culture dishes (6*10^6 cells/dish) with RPMI-1640 medium (Lonza) supplemented with 10% heat-inactivated fetal bovine serum (Invitrogen) and 2-mercaptoethanol to a final concentration of 0.05 mM. Cells in one dish were transfected with 50 nM of KEAP1 siRNA (Life Technologies, Silencer Select, siRNA ID # s18982) using Lipofectamine RNAiMax (Invitrogen), whereas the cells in the other dish were transfected with 50 nM of control siRNA, Block-iT (Invitrogen). Transfected cells were left for 72 h and the KEAP1 knockdown efficiency was calculated with quantitative PCR using a probe against KEAP1.
Next, the cells from each of the dishes were divided equally into 4 wells in different 6-well plates. One of the wells from each of the plates was pre-treated with 1 μM of Compound 1 for 1 h, followed by 20 ng/mL TNFα for 24 h. The other wells were treated with either 1 μM Compound 1 or 20 ng/mL TNFα or neither for 24 h. Following the treatment, RNA was extracted from the cells using an RNA extraction kit (Qiagen). RNA samples from each treatment group were reverse transcribed and real-time PCR was performed on the corresponding cDNA sequences using probes against Nrf2 and two of its downstream genes, NQO1 and EPHX1. THP-1 cells were transfected with KEAP1 siRNA. 40% knockdown efficiency was achieved. The KEAP1 knockdown cells were treated with either 1 μM of Compound 1 or 20 ng/mL of TNFα or both together for 24 h.

[2] = test system: anti-collagen antibody induced arthritis; assay: Anti-collagen antibody induced mouse model of rheumatoid arthritis (CAIA); type: in vivo, mice
Protocol: Twenty-four (24) male Balb/c mice, aged 6 to 8 weeks were used. […] On study Day 0 (study commencement), all mice were subjected to a 2 mg intravenous injection of ArthritoMAb™ antibody cocktail (MD Biosciences # S1203001) followed by an intraperitoneal injection of LPS ([…]) on study Day 3. […] Treatments were administered once daily on days 4, 6, 8 and 10 for all groups, except where dosing vacations applied. If an animal's weight dropped below 87% of its day 0 starting weight, the animal was not dosed until it gained weight equivalent to 90% or more of day 0 weight.
Arthritis development, clinical signs and body weights were monitored in all mice on study days 0, 3-8, 10 and 12. Observations included changes in skin, fur, eyes, mucous membranes, occurrence of secretions and excretions (e.g., diarrhea) and autonomic activity (e.g., lacrimation, salivation, piloerection, pupil size, unusual respiratory pattern). All paws (front left and right, and rear left and right) of each animal were examined for signs of arthritogenic responses prior to arthritis induction and test item or control item administration on study Day 0 and subsequently on study Days 3-8, 10 and 12 (study termination). Arthritis reactions were scored and recorded according to a 0-4 scale in ascending order of severity, as shown Table 5 below. Paw thickness was also measured using a dial caliper (Kroeplin, Munich, Germany).
The dose administered was calculated based on the assumption that the animals weighed, on average, 20 g. […] Vehicle for the vehicle control group was prepared by dissolving 0.6 g Pluronic and 0.6 g PVP in 100 mL distilled deionised water. The MAb stock solution (10 mg/mL) was supplied by MD Biosciences, Division of Morwell Diagnostics GmbH. LPS was diluted with PBS to achieve the appropriate concentration. Thorough vortexing was required just prior to its injection. […] A fixed volume of 200 μL was administered to each mouse.
Evaluation was primarily based on the mean values for arthritis scoring and paw thickness measurements. Where appropriate, analysis of the data by ANOVA with Tukey post hoc analysis was applied to determine significance of treatment effects.

[3] = 1 μM Compound 1 + 20 ng/mL TNFα, 24 h, KEAP1 knockdown
[4] = 1 μM Compound 1 + 20 ng/mL TNFα, 24 h, without KEAP1 knockdown

Row | SMILES | increase in NQO1 expression [1, 3] [fold] | increase in Nrf2 expression compared to untreated cells [1, 3] [fold] | increase in NQO1 expression [1, 4] [fold] | increase in Nrf2 mRNA levels [1, 4] [fold] | induction of EPHX1 expression [1, 4] [fold] | EPHX1 mRNA expression ([1]; 1 μM Compound 1, presence or absence of TNFα) | Nrf2 expression ([1]; 1 μM Compound 1 alone, with or without KEAP1 knockdown) | Nrf2 signaling ([1]; 1 μM for 24 hrs in the presence of 20 ng/mL TNFα) | total arthritis score compared to vehicle ([2]; 4 mg/kg orally, days 6-12) | anti-arthritic activity (mean arthritis scores, paw thickness) ([2]; 7.5 mg/kg or 4 mg/kg orally) | rear paw arthritis score compared to vehicle ([2]; 7.5 mg/kg or 4 mg/kg orally, days 5-12) | total arthritis score compared to vehicle ([2]; 7.5 mg/kg orally, days 5-12)
1 | CC(C)(C)C(=O)NNC(=O)/C=C\n1cnc(-c2cc(C(F)(F)F)cc(C(F)(F)F)c2)n1 [Compound 1, (Z)-3-(3-(3,5-bis(trifluoromethyl)phenyl)-1H-1,2,4-triazol-1-yl)-N′-pivaloylacrylohydrazide] | 4 | 2.5 | 2 | ≤ 3 | 1.5 | up-regulated the expression of EPHX1 | did not have any significant effect | up-regulated Nrf2 signaling | – | – | – | –
2 | O=C(/C=C\n1cnc(-c2cc(C(F)(F)F)cc(C(F)(F)F)c2)n1)NNC(=O)CN1CCOCC1 [Compound 2, (Z)-3-(3-(3,5-bis(trifluoromethyl)phenyl)-1H-1,2,4-triazol-1-yl)-N′-(2-morpholinoacetyl)acrylohydrazide] | – | – | – | – | – | – | – | – | significantly reduced total arthritis scores | significant anti-arthritic activity | significantly reduced rear paw arthritis scores | significantly reduced total arthritis scores
